Measurements as given in patent US8735609B2, “Bryostatin analogues, synthetic methods and uses” (The Board of Trustees of the Leland Stanford Junior …, priority 2007, dated 2014).

Assays:
MCF7 = assay: NCI human cancer cell line growth inhibition: MCF7 (Breast); type: cell-based
SW-620 = assay: NCI human cancer cell line growth inhibition: SW-620 (Colon); type: cell-based
SF-268 = assay: NCI human cancer cell line growth inhibition: SF-268 (CNS); type: cell-based
NCI/ADR-RES = type: cell-based, human; conditions: Breast
RXF-393 = assay: NCI human cancer cell line growth inhibition: RXF-393 (Renal); type: cell-based
SK-MEL-28 = assay: NCI human cancer cell line growth inhibition: SK-MEL-28 (Melanoma); type: cell-based
NCI-H522 = type: cell-based, human; conditions: NCI-H522, NSC Lung
MDA-MB-435 = assay: NCI human cancer cell line growth inhibition: MDA-MB-435 (Breast); type: cell-based
BT-549 = assay: NCI human cancer cell line growth inhibition: BT-549 (Breast); type: cell-based
SK-OV-3 = assay: NCI human cancer cell line growth inhibition: SK-OV-3 (Ovarian); type: cell-based
U251 = assay: NCI human cancer cell line growth inhibition: U251 (CNS); type: cell-based
SNB-19 = assay: NCI human cancer cell line growth inhibition: SNB-19 (CNS); type: cell-based
SR = assay: NCI human cancer cell line growth inhibition: SR (Leukemia); type: cell-based
HCC-2998 = assay: NCI human cancer cell line growth inhibition: HCC-2998 (Colon); type: cell-based
MOLT-4 = assay: NCI human cancer cell line growth inhibition: MOLT-4 (Leukemia); type: cell-based
SK-MEL-5 = assay: NCI human cancer cell line growth inhibition: SK-MEL-5 (Melanoma); type: cell-based
HS 578T = assay: NCI human cancer cell line growth inhibition: HS 578T (Breast); type: cell-based
OVCAR-3 = assay: NCI human cancer cell line growth inhibition: OVCAR-3 (Ovarian); type: cell-based
OVCAR-8 = assay: NCI human cancer cell line growth inhibition: OVCAR-8 (Ovarian); type: cell-based
RPMI-8226 = assay: NCI human cancer cell line growth inhibition: RPMI-8226 (Leukemia); type: cell-based
NCI-H226 = type: cell-based, human; conditions: NCI-H226, NSC Lung
UACC-62 = assay: NCI human cancer cell line growth inhibition: UACC-62 (Melanoma); type: cell-based
OVCAR-5 = assay: NCI human cancer cell line growth inhibition: OVCAR-5 (Ovarian); type: cell-based
HOP-92 = assay: NCI human cancer cell line growth inhibition: HOP-92 (NSC Lung); type: cell-based
HOP-62 = assay: NCI human cancer cell line growth inhibition: HOP-62 (NSC Lung); type: cell-based
HCT-116 = assay: NCI human cancer cell line growth inhibition: HCT-116 (Colon); type: cell-based
IGROVI = assay: NCI human cancer cell line growth inhibition: IGROVI (Ovarian); type: cell-based
SF-539 = assay: NCI human cancer cell line growth inhibition: SF-539 (CNS); type: cell-based
MDA-N = assay: NCI human cancer cell line growth inhibition: MDA-N (Breast); type: cell-based
NCI-H23 = type: cell-based, human; conditions: NCI-H23, NSC Lung
DU-145 = assay: NCI human cancer cell line growth inhibition: DU-145 (Prostate); type: cell-based
CAKI-1 = assay: NCI human cancer cell line growth inhibition: CAKI-1 (Renal); type: cell-based
TK-10 = assay: NCI human cancer cell line growth inhibition: TK-10 (Renal); type: cell-based
EKVX = assay: NCI human cancer cell line growth inhibition: EKVX (NSC Lung); type: cell-based
SN12C = assay: NCI human cancer cell line growth inhibition: SN12C (Renal); type: cell-based
A498 = assay: NCI human cancer cell line growth inhibition: A498 (Renal); type: cell-based
786-0 = assay: NCI human cancer cell line growth inhibition: 786-0 (Renal); type: cell-based
COLO 205 = assay: NCI human cancer cell line growth inhibition: COLO 205 (Colon); type: cell-based
HCT-15 = assay: NCI human cancer cell line growth inhibition: HCT-15 (Colon); type: cell-based
CCRF-CEM = assay: NCI human cancer cell line growth inhibition: CCRF-CEM (Leukemia); type: cell-based
MI4 = assay: NCI human cancer cell line growth inhibition: MI4 (Melanoma); type: cell-based
ACHN = assay: NCI human cancer cell line growth inhibition: ACHN (Renal); type: cell-based
LOX IMVI = assay: NCI human cancer cell line growth inhibition: LOX IMVI (Melanoma); type: cell-based
MALME-3M = assay: NCI human cancer cell line growth inhibition: MALME-3M (Melanoma); type: cell-based
K-562 = assay: NCI human cancer cell line growth inhibition: K-562 (Leukemia); type: cell-based
HL-60(TB) = assay: cells; type: cell-based, human
UACC-257 = assay: NCI human cancer cell line growth inhibition: UACC-257 (Melanoma); type: cell-based
SNB-75 = assay: NCI human cancer cell line growth inhibition: SNB-75 (CNS); type: cell-based
MDA-MB-231/ATCC = assay: NCI human cancer cell line growth inhibition: MDA-MB-231/ATCC (Breast); type: cell-based
A549/ATCC = assay: NCI human cancer cell line growth inhibition: A549/ATCC (NSC Lung); type: cell-based
SK-MEL-2 = assay: NCI human cancer cell line growth inhibition: SK-MEL-2 (Melanoma); type: cell-based
PC-3 = assay: NCI human cancer cell line growth inhibition: PC-3 (Prostate); type: cell-based
UO-31 = assay: NCI human cancer cell line growth inhibition: UO-31 (Renal); type: cell-based
KM12 = assay: NCI human cancer cell line growth inhibition: KM12 (Colon); type: cell-based
NCI-H460 = type: cell-based, human; conditions: NCI-H460, NSC Lung
SF-295 = assay: NCI human cancer cell line growth inhibition: SF-295 (CNS); type: cell-based
HT29 = assay: NCI human cancer cell line growth inhibition: HT29 (Colon); type: cell-based
T-47D = assay: NCI human cancer cell line growth inhibition: T-47D (Breast); type: cell-based
OVCAR-4 = assay: NCI human cancer cell line growth inhibition: OVCAR-4 (Ovarian); type: cell-based

Q: Which results are given for CCC/C=C/C=C/C(=O)O[C@H]1/C(=C/C(=O)OC)C[C@H]2C[C@H]([C@@H](C)O)OC(=O)C[C@H](O)C[C@@H]3C[C@H](OC(C)=O)C(C)(C)[C@](O)(C[C@@H]4C/C(=C/C(=O)OC)C[C@H](/C=C/C(C)(C)[C@]1(O)O2)O4)O3 [Bryo-1, Bryostatin-1, reference compound]?
A: Growth inhibition (GI50) (MCF7): −5.20 log of molar concentration; Growth inhibition (GI50) (SW-620): −5.50 log of molar concentration; Growth inhibition (GI50) (SF-268): −5.10 log of molar concentration; Growth inhibition (GI50) (NCI/ADR-RES): >−5 log of molar concentration; Growth inhibition (GI50) (RXF-393): −5.30 log of molar concentration; Growth inhibition (GI50) (SK-MEL-28): −5.10 log of molar concentration; Growth inhibition (GI50) (NCI-H522): >−5 log of molar concentration; Growth inhibition (GI50) (MDA-MB-435): −5.10 log of molar concentration; Growth inhibition (GI50) (BT-549): −5.10 log of molar concentration; Growth inhibition (GI50) (SK-OV-3): −5.10 log of molar concentration; Growth inhibition (GI50) (U251): −5.10 log of molar concentration; Growth inhibition (GI50) (SNB-19): >−5 log of molar concentration; Growth inhibition (GI50) (SR): >−5 log of molar concentration; Growth inhibition (GI50) (HCC-2998): −5.30 log of molar concentration; Growth inhibition (GI50) (MOLT-4): −5.50 log of molar concentration; Growth inhibition (GI50) (SK-MEL-5): −5.70 log of molar concentration; Growth inhibition (GI50) (HS 578T): −5.2 log of molar concentration; Growth inhibition (GI50) (OVCAR-3): −5.10 log of molar concentration; Growth inhibition (GI50) (OVCAR-8): −5.10 log of molar concentration; Growth inhibition (GI50) (RPMI-8226): >−5 log of molar concentration; Growth inhibition (GI50) (NCI-H226): >−5 log of molar concentration; Growth inhibition (GI50) (UACC-62): −5.30 log of molar concentration; Growth inhibition (GI50) (OVCAR-5): >−5 log of molar concentration; Growth inhibition (GI50) (HOP-92): −5.30 log of molar concentration; Growth inhibition (GI50) (HOP-62): >−5 log of molar concentration; Growth inhibition (GI50) (HCT-116): −5.30 log of molar concentration; Growth inhibition (GI50) (IGROVI): −5.30 log of molar concentration; Growth inhibition (GI50) (SF-539): >−5 log of molar concentration; Growth inhibition (GI50) (MDA-N): −5.10 log of molar concentration; Growth inhibition (GI50) (NCI-H23): >−5 log of molar concentration; Growth inhibition (GI50) (DU-145): >−5 log of molar concentration; Growth inhibition (GI50) (CAKI-1): −5.40 log of molar concentration; Growth inhibition (GI50) (TK-10): >−5 log of molar concentration; Growth inhibition (GI50) (EKVX): −5.30 log of molar concentration; Growth inhibition (GI50) (SN12C): −5.10 log of molar concentration; Growth inhibition (GI50) (A498): >−5 log of molar concentration; Growth inhibition (GI50) (786-0): −5.20 log of molar concentration; Growth inhibition (GI50) (COLO 205): −5.40 log of molar concentration; Growth inhibition (GI50) (HCT-15): >−5 log of molar concentration; Growth inhibition (GI50) (CCRF-CEM): −5.30 log of molar concentration; Growth inhibition (GI50) (MI4): >−5 log of molar concentration; Growth inhibition (GI50) (ACHN): −5.50 log of molar concentration; Growth inhibition (GI50) (LOX IMVI): −5.10 log of molar concentration; Growth inhibition (GI50) (MALME-3M): −5.20 log of molar concentration; Growth inhibition (GI50) (K-562): −5.40 log of molar concentration; Growth inhibition (GI50) (HL-60(TB)): −5.70 log of molar concentration; Growth inhibition (GI50) (UACC-257): −5.10 log of molar concentration; Growth inhibition (GI50) (SNB-75): −5.50 log of molar concentration; Growth inhibition (GI50) (MDA-MB-231/ATCC): −5.20 log of molar concentration; Growth inhibition (GI50) (A549/ATCC): −5.20 log of molar concentration; Growth inhibition (GI50) (SK-MEL-2): −5.20 log of molar concentration; Growth inhibition (GI50) (PC-3): −5.30 log of molar concentration; Growth inhibition (GI50) (UO-31): −5.60 log of molar concentration; Growth inhibition (GI50) (KM12): −5.20 log of molar concentration; Growth inhibition (GI50) (NCI-H460): −5.60 log of molar concentration; Growth inhibition (GI50) (SF-295): −5.20 log of molar concentration; Growth inhibition (GI50) (HT29): −5.30 log of molar concentration; Growth inhibition (GI50) (T-47D): −5.20 log of molar concentration; Growth inhibition (GI50) (OVCAR-4): −5.50 log of molar concentration
